Laboratory results published in patent US9932637B2, “Genetic polymorphisms associated with cardiovascular disorders and drug response, methods of detection and uses thereof” (CELERA CORPORATION, priority 2003, dated 2018).

Tested on: patients with prior myocardial infarction (CARE study)
Experiment: CARE: association of SNPs with pravastatin treatment in cardiovascular events prevention (logistic regression, odds ratio pravastatin vs placebo by genotype; Table 8)
Assay type: in vivo, human
Conditions: for Non-fatal MI (def & prob), n/total (%) / Fatal CHD/Definite Non-fatal MI, n/total (%) / Coronary Artery Bypass or Revascularization, n/total (%) / Hosp. for Unstable Angina, n/total (%) / Total Coronary Heart Disease Events, n/total (%) / Fatal/Non-fatal Atherosclerotic CV Disease, n/total (%) / Hosp. for Cardiovascular Disease, n/total (%) / Total Cardiovascular Disease Events, n/total (%) / Prava vs. Placebo Odds Ratio, 0 Rare Alleles / Prava vs. Placebo Odds Ratio, 1 Rare Alleles / Cardiovascular Mortality, n/total (%) / Fatal Atherosclerotic Cardiovascular Disease, n/total (%) / Fatal/Non-fatal MI (def & prob), n/total (%): All Patients; for Non-fatal MI (def & prob), n/total (%) / Fatal CHD/Definite Non-fatal MI, n/total (%) / Coronary Artery Bypass or Revascularization, n/total (%) / Hosp. for Unstable Angina, n/total (%) / Total Coronary Heart Disease Events, n/total (%) / Fatal/Non-fatal Atherosclerotic CV Disease, n/total (%) / Hosp. for Cardiovascular Disease, n/total (%) / Total Cardiovascular Disease Events, n/total (%) / Cardiovascular Mortality, n/total (%) / Fatal Atherosclerotic Cardiovascular Disease, n/total (%) / Fatal/Non-fatal MI (def & prob), n/total (%): Prava
Description: In order to identify genetic markers associated with acute coronary events (e.g. MI, stroke, unstable angina, congestive heart failure, etc.) or response to statin treatment for the prevention of coronary events, samples from the Cholesterol and Recurrent Events (CARE) study (a randomized multicentral double-blinded trial on secondary prevention of acute coronary events with pravastatin) (Sacks et al., 1991, Am. J. Cardiol. 68: 1436-1446) were genotyped. A well-documented myocardial infarction (MI) was one of the enrollment criteria for entry into the CARE study. Patients were enrolled in the CARE trial from 80 participating study centers. […] Patients were randomized to receive either 40 mg of pravastatin once daily or a matching placebo. The primary endpoint of the trial was death from coronary heart disease and the median duration of follow-up was 5.0 years (range, 4.0 to 6.2 years). […] Secondary endpoints of other related cardiovascular or metabolic disease events, and changes in clinical variables were also recorded in pravastatin-treated and placebo groups. All individuals included in the study had signed a written informed consent form and the study protocol was approved by the respective Institutional Review Boards (IRBs).
For genotyping SNPs in CARE patient samples, DNA was extracted from blood samples using conventional DNA extraction methods such as the QIA-amp kit from Qiagen. Genotypes were obtained on an ABI PRISM® 7900HT Sequence Detection PCR system (Applied Biosystems, Foster City, Calif.) by kinetic allele-specific PCR, similar to the method described by Germer et al. (Germer S., Holland M. J., Higuchi R. 2000, Genome Res. 10: 258-266).
Statistical analysis for association of SNPs with pravastatin treatment in cardiovascular events prevention (Table 8) was carried out using an overall logistic regression model that included an intercept, a parameter for the effect of a genotype containing two rare alleles versus a genotype containing no rare alleles, a parameter for the effect of a genotype containing one rare allele versus a genotype containing no rare alleles, a parameter for the effect of use of pravastatin versus the use of placebo, and parameters for the interaction effects between SNP genotypes and pravastatin use. The test of the overall model is a chi-square test with two degrees of freedom for analyses containing all three genotypes, and one degree of freedom for analyses containing two genotypes.
Effect sizes were estimated through odds ratios (pravastatin group versus placebo) for carriers of each genotype (groups of 0, 1, and 2 minor allele carriers). The effect was considered to be significant if p-value for testing whether any of the interactions between SNP genotypes and pravastatin use were <0.05. […] Odds ratios less than one indicate that the specific SNP allele has a protective effect and odds ratios greater than one indicate that the specific SNP allele has an adverse effect.

[1] = CR1 hCV25598594, 2 Rare Alleles, n/total 0/0
[2] = CR1 hCV25598594, Coronary Artery Bypass or Revascularization
[3] = CR1 hCV25598594, Fatal CHD/Definite Non-fatal MI
[4] = CR1 hCV25598594, Fatal/Non-fatal Atherosclerotic CV Disease
[5] = CR1 hCV25598594, Hosp. for Cardiovascular Disease
[6] = CR1 hCV25598594, Hosp. for Unstable Angina
[7] = CR1 hCV25598594, Non-fatal MI (def & prob)
[8] = CR1 hCV25598594, Total Cardiovascular Disease Events
[9] = CR1 hCV25598594, Total Coronary Heart Disease Events
[10] = CXCL16 hCV8718197, 0 Rare Alleles, n/total 12/468

SMILES: CC[C@H](C)C(=O)O[C@H]1C[C@H](O)C=C2C=C[C@H](C)[C@H](CC[C@@H](O)C[C@@H](O)CC(=O)O)[C@H]21 [pravastatin]
- Nonfatal MI (def & prob), n/total (%) (COL11A1 hCV8400671, All Patients, 2 Rare Alleles, Prava arm): (4.1%)
- Non-fatal MI (def & prob), n/total (%) (CR1 hCV25598594, 0 Rare Alleles, n/total 132/1445): (9.1%)
- Fatal CHD/Definite Non-fatal MI, n/total (%) (CR1 hCV25598594, 0 Rare Alleles, n/total 139/1445): (9.6%)
- Coronary Artery Bypass or Revascularization, n/total (%) (CR1 hCV25598594, 0 Rare Alleles, n/total 212/1445): (14.7%)
- Hosp. for Unstable Angina, n/total (%) (CR1 hCV25598594, 0 Rare Alleles, n/total 223/1445): (15.4%)
- Total Coronary Heart Disease Events, n/total (%) (CR1 hCV25598594, 0 Rare Alleles, n/total 431/1445): (29.8%)
- Fatal/Non-fatal Atherosclerotic CV Disease, n/total (%) (CR1 hCV25598594, 0 Rare Alleles, n/total 491/1445): (34.0%)
- Hosp. for Cardiovascular Disease, n/total (%) (CR1 hCV25598594, 0 Rare Alleles, n/total 586/1445): (40.6%)
- Total Cardiovascular Disease Events, n/total (%) (CR1 hCV25598594, 0 Rare Alleles, n/total 603/1445): (41.7%)
- Fatal CHD/Definite Non-fatal MI, n/total (%) (CR1 hCV25598594, 1 Rare Allele, n/total 1/72): (1.4%)
- Non-fatal MI (def & prob), n/total (%) (CR1 hCV25598594, 1 Rare Allele, n/total 2/72): (2.8%)
- Coronary Artery Bypass or Revascularization, n/total (%) (CR1 hCV25598594, 1 Rare Allele, n/total 7/72): (9.7%)
- Hosp. for Unstable Angina, n/total (%) (CR1 hCV25598594, 1 Rare Allele, n/total 8/72): (11.1%)
- Total Coronary Heart Disease Events, n/total (%) (CR1 hCV25598594, 1 Rare Allele, n/total 11/72): (15.3%)
- Fatal/Non-fatal Atherosclerotic CV Disease, n/total (%) (CR1 hCV25598594, 1 Rare Allele, n/total 15/72): (20.8%)
- Hosp. for Cardiovascular Disease, n/total (%) (CR1 hCV25598594, 1 Rare Allele, n/total 23/72): (31.9%)
- Total Cardiovascular Disease Events, n/total (%) (CR1 hCV25598594, 1 Rare Allele, n/total 24/72): (33.3%)
- Coronary Artery Bypass or Revascularization, n/total (%) [1]: (0.0%)
- Fatal CHD/Definite Non-fatal MI, n/total (%) [1]: (0.0%)
- Fatal/Non-fatal Atherosclerotic CV Disease, n/total (%) [1]: (0.0%)
- Hosp. for Cardiovascular Disease, n/total (%) [1]: (0.0%)
- Hosp. for Unstable Angina, n/total (%) [1]: (0.0%)
- Non-fatal MI (def & prob), n/total (%) [1]: (0.0%)
- Total Cardiovascular Disease Events, n/total (%) [1]: (0.0%)
- Total Coronary Heart Disease Events, n/total (%) [1]: (0.0%)
- Prava vs. Placebo Odds Ratio, 0 Rare Alleles [2]: 0.74
- Prava vs. Placebo Odds Ratio, 1 Rare Alleles [2]: 0.23
- Prava vs. Placebo Odds Ratio, 0 Rare Alleles [3]: 0.76
- Prava vs. Placebo Odds Ratio, 1 Rare Alleles [3]: 0.06
- Prava vs. Placebo Odds Ratio, 0 Rare Alleles [4]: 0.81
- Prava vs. Placebo Odds Ratio, 1 Rare Alleles [4]: 0.25
- Prava vs. Placebo Odds Ratio, 0 Rare Alleles [5]: 0.79
- Prava vs. Placebo Odds Ratio, 1 Rare Alleles [5]: 0.33
- Prava vs. Placebo Odds Ratio, 0 Rare Alleles [6]: 0.87
- Prava vs. Placebo Odds Ratio, 1 Rare Alleles [6]: 0.31
- Prava vs. Placebo Odds Ratio, 0 Rare Alleles [7]: 0.74
- Prava vs. Placebo Odds Ratio, 1 Rare Alleles [7]: 0.12
- Prava vs. Placebo Odds Ratio, 0 Rare Alleles [8]: 0.78
- Prava vs. Placebo Odds Ratio, 1 Rare Alleles [8]: 0.33
- Prava vs. Placebo Odds Ratio, 0 Rare Alleles [9]: 0.81
- Prava vs. Placebo Odds Ratio, 1 Rare Alleles [9]: 0.22
- Cardiovascular Mortality, n/total (%) [10]: (2.6%)
- Fatal Atherosclerotic Cardiovascular Disease, n/total (%) [10]: (2.6%)
- Fatal/Non-fatal MI (def & prob), n/total (%) (CXCL16 hCV8718197, 0 Rare Alleles, n/total 33/468): (7.1%)
- Fatal CHD/Definite Non-fatal MI, n/total (%) (CXCL16 hCV8718197, 0 Rare Alleles, n/total 36/468): (7.7%)
- Coronary Artery Bypass or Revascularization, n/total (%) (CXCL16 hCV8718197, 0 Rare Alleles, n/total 56/468): (12.0%)
- Total Coronary Heart Disease Events, n/total (%) (CXCL16 hCV8718197, 0 Rare Alleles, n/total 125/468): (26.7%)
- Hosp. for Cardiovascular Disease, n/total (%) (CXCL16 hCV8718197, 0 Rare Alleles, n/total 177/468): (37.8%)
- Total Cardiovascular Disease Events, n/total (%) (CXCL16 hCV8718197, 0 Rare Alleles, n/total 180/468): (38.5%)
- Fatal Atherosclerotic Cardiovascular Disease, n/total (%) (CXCL16 hCV8718197, 1 Rare Allele, n/total 23/742): (3.1%)
- Cardiovascular Mortality, n/total (%) (CXCL16 hCV8718197, 1 Rare Allele, n/total 24/742): (3.2%)
- Fatal CHD/Definite Non-fatal MI, n/total (%) (CXCL16 hCV8718197, 1 Rare Allele, n/total 68/742): (9.2%)
- Fatal/Non-fatal MI (def & prob), n/total (%) (CXCL16 hCV8718197, 1 Rare Allele, n/total 75/742): (10.1%)
- Coronary Artery Bypass or Revascularization, n/total (%) (CXCL16 hCV8718197, 1 Rare Allele, n/total 119/742): (16.0%)
- Total Coronary Heart Disease Events, n/total (%) (CXCL16 hCV8718197, 1 Rare Allele, n/total 220/742): (29.6%)
- Hosp. for Cardiovascular Disease, n/total (%) (CXCL16 hCV8718197, 1 Rare Allele, n/total 305/742): (41.1%)
- Total Cardiovascular Disease Events, n/total (%) (CXCL16 hCV8718197, 1 Rare Allele, n/total 314/742): (42.3%)
- Cardiovascular Mortality, n/total (%) (CXCL16 hCV8718197, 2 Rare Alleles, n/total 19/292): (6.5%)
